The results in this text go back to patent US11753379B2, “Process for forming 2-hydroxypyridine-1-oxide or derivatives thereof” (Clariant International Ltd., priority 2018, dated 2023).

The test system of series [1] is Candida albicans DSM 1386. The experiment in a line: MIC test, efficacy versus microbes. In kind it is cell-based. To be noted: DSM1386, pH 6.5, Octopirox tested as 5%, Piroctone as 3.98% in butylpolyglycol, read-out: MIC in ppm pH 6.5 (Malassezia Agar). The method, then: (§1) A compound according to Formula (2), namely 1-hydroxy-4-methyl-6-(2,4,4-trimethyl pentyl)-2(1H)-pyridone (named as Piroctone in the below table), is tested for efficacy versus various microbes. Comparison is made versus Piroctone Olamine (=Octopirox®).

For series [2], the system named is Malassezia furfur DSM 6170. The experiment in a line: MIC test, efficacy versus microbes. In kind it is cell-based. Particulars: DSM6170, pH 6.5, Octopirox tested as 5%, Piroctone as 3.98% in butylpolyglycol, read-out: MIC in ppm pH 6.5 (Malassezia Agar). As for the experimental part: as §1
The subject of series [3] is Malassezia globosa ATCC 4889. The series is described as follows: MIC test, efficacy versus microbes. The format is cell-based. Particulars: ATCC4889, pH 6.5, Octopirox tested as 5%, Piroctone as 3.98% in butylpolyglycol, read-out: MIC in ppm pH 6.5 (Malassezia Agar). The method, then:
as §1

The subject of series [4] is Malassezia pachydermatis DSM 6172. The experiment in a line: MIC test, efficacy versus microbes. The format is cell-based. Particulars: DSM6172, pH 6.5, Octopirox tested as 5%, Piroctone as 3.98% in butylpolyglycol, read-out: MIC in ppm pH 6.5 (Malassezia Agar). As for the experimental part: as §1
The test system of series [5] is Saccharomyces cerevisiae DSM 70449. The experiment in a line: MIC test, efficacy versus microbes. To be noted: DSM70449, pH 6.5, Octopirox tested as 5%, Piroctone as 3.98% in butylpolyglycol, read-out: MIC in ppm pH 6.5 (Malassezia Agar). In kind it is cell-based. The method, then: as §1
Series [6] in a line: Solubility testing in various solvents. The format is physicochemical. To be noted: for Solubility: directly after addition and after standing for a week. The method, then: A compound according to Formula (2), namely 1-hydroxy-4-methyl-6-(2,4,4-trimethylpentyl)-2(1H)-pyridone, is tested for solubility in various solvents. A 10% (w/w) solution of this compound is tested. The solubility is tested directly after addition as well as after being left to stand for a week.

The next series deals with various microbes. The series is described as follows: MIC tests overall, comparison versus Piroctone Olamine. The format is cell-based. The method, then:
as §1

Counter-ions that a name gives are not always drawn.

What is called MIC is the lowest concentration that inhibits growth of the organism. For `Cc1cc(CC(C)CC(C)(C)C)n(O)c(=O)c1` (stereo not shown) [Octopirox, monoethanolamine salt of 1-hydroxy-4-methyl-6-(2,4,4-trimethylpentyl)-2(1H)-pyridone], the MIC in series [1], in series [2], in series [3], in series [4] and in series [5] was 500 mg/L throughout.

Consider `Cc1cc(CC(C)CC(C)(C)C)n(O)c(=O)c1` (stereo not shown) [Piroctone, 1-hydroxy-4-methyl-6-(2,4,4-trimethylpentyl)-2(1H)-pyridone], for which the “Comments (solubility observation)” value in series [6] (10% (w/w) in 1,3-Dioxolane) is on record as “Not soluble”; in series [6] (10% (w/w) in 2-Methyltetrahydrofuran), “Not soluble”; in series [6] (10% (w/w) in 3-Pentanone), “Not completely soluble, supernatant”; in series [6] (10% (w/w) in Acetone (purity >99%)) it was “Dissolves to a large extend”; in series [6] (10% (w/w) in Ethanol), “Dissolves slowly leading to a clear”; in series [6] (10% (w/w) in Isopropanol), “Not completely dissolved,”. Besides, the “Comments (solubility observation)” value in series [6] (10% (w/w) in Methanol) is given as “Soluble. Resulting soltuion is clear”. Moreover, the Solubility result in series [6] (10% (w/w) solution in 1,3-Dioxolane) is “no”; in series [6] (10% (w/w) solution in 2-Methyltetrahydrofuran) it was “no”; in series [6] (10% (w/w) solution in 3-Pentanone) it was “no”; in series [6] (10% (w/w) solution in Acetone (purity >99%)) it was “no”; in series [6] (10% (w/w) solution in Ethanol), “excellently and yes”; in series [6] (10% (w/w) solution in Isopropanol) it was “no”. The Solubility entry in series [6] (10% (w/w) solution in Methanol) was “excellently and yes”; in series [6] (10% (w/w) solution in tert. Butanol (2.5% H2O)) it was “no”. The “Mass efficacy better than Piroctone Olamine” value in the series on various microbes (antimicrobial efficacy per mass) is recorded as “around 20%”. Besides, the “Activity in MIC tests compared with Piroctone Olamine” value in the series with various microbes (conclusion from Experiment 2) is on record as “same activity in MIC tests at a lower concentration than Piroctone Olamine”.
